Source: patent publication US20230152316A1, “SARS-COV2 SPIKE PROTEIN BINDING PEPTIDES” (priority 2020, published 2023)

Molecular target: SARS-CoV-2-RBD (insect-derived) (Severe acute respiratory syndrome coronavirus 2, UniProt P0DTC2, F486P)

For TFLDKFNHEAED [SEQ ID NO: 15], the “binding to SARS-CoV-2-RBD” value was “did not bind”.
